The subject of one test is human platelet aggregation. Description: Human platelet aggregation inhibitory test (ADP-induced, platelet rich plasma). It counts as cell-based. To be noted: human PRP, 5 μM ADP, compound added 1 minute before ADP, turbidity (aggregometer), read-out: Platelet Aggregation Inhibitory Effect IC50. Here is the method: Blood collected from human median cubital vein was centrifuged at 800 rpm for 10 minutes. Upper portion of the resultant was collected as platelet rich plasma (PRP). PRP was dispensed to small test tubes, and 5 μM of ADP was added thereto to induce platelet aggregation. The degree of platelet aggregation was measured as a change in turbidity using an aggregometer (Hematracer 1, Nikobioscience). Each compound was added 1 minute before ADP addition, and calculation was carried out using as an IC50 value a concentration that inhibits aggregation by 50%.
In general, IC50 refers to the concentration at which inhibition is half-maximal. For the compound `O=C(O)COc1cccc2c1OCCN2CCN(C(=O)c1ccccc1)c1ccc(Cl)cc1` [Example 1-14], the IC50 is 13 nM. Same read-out and setting: the value for `O=C(O)COc1cccc2c1OCCN2CCN(C(=O)C1=CCCCC1)c1ccc(Br)cc1` [Example 2-27] was 55 nM; that for `Cc1ccc(C(=O)N(CCN2CCOc3c(OCC(=O)O)cccc32)c2ccc(Br)cc2)cc1` [Example 2-4] was 27 nM.

As for `O=C(O)COc1cccc2c1OCCN2CCN(C(=O)c1ccccc1)c1ccc(Cl)cc1F` [Example 1-63], the half-inhibitory concentration (IC50) stood at 8.8 nM.

Regarding `CSc1ccc(N(CCN2CCOc3c(OCC(=O)O)cccc32)C(=O)c2ccccc2)cc1` [Example 1-40], the IC50 stood at 14 nM. On the same count and under the same terms, the value for `O=C(O)COc1cccc2c1OCCN2CCN(C(=O)c1ccccc1)c1ccc(Cl)cc1Cl` [Example 1-49] was 18 nM; that for `Cc1ccc(C(=O)N(CCN2CCOc3c(OCC(=O)O)cccc32)c2ccc(C)cc2)cc1` [Example 1-28] was 5.9 nM. Same read-out and setting: the value for `Cc1ccc(N(CCN2CCOc3c(OCC(=O)O)cccc32)C(=O)c2ccccc2)cc1` [Example 1-16] was 5.3 nM.

A further test relates to platelet aggregation. Description: Monkey platelet aggregation inhibitory test after oral administration (ex vivo, ADP-induced, PRP). To be noted: male crab-eating monkeys, blood before and 30, 60, 120, 180 min after administration, 10 μM ADP, FIG. 1. It counts as in vivo. How it is done: Male crab-eating monkeys (4 to 6 kg) were retained in monkey chairs. After 30 minutes of acclimatization, the compound of Example 1-13 was orally administered to the monkeys using catheters (16 Fr).
Blood was collected via saphenous veins before, and 30, 60, 120 and 180 minutes after administration of drug solutions using a syringe that had previously contained a 3.8% sodium citrate solution in a volume that was one-tenth of that of collected blood.
The collected blood was centrifuged at 1000 rpm for 10 minutes. Upper portions of the resultants were collected as platelet rich plasma (PRP). PRP was apportioned into small test tubes, and 10 μM of ADP was added thereto to induce platelet aggregation. The degree of platelet aggregation was measured as a change in turbidity using an aggregometer (Hematracer 1, Nikobioscience).
Turning to `O=C(O)COc1cccc2c1OCCN2CCN(C(=O)c1ccccc1)c1ccc(Br)cc1` [Example 1-13], the “inhibitory effect of platelet aggregation after oral administration” value is listed as “strong inhibitory effect of platelet aggregation”.
